This note sets out measurements from ChEMBL document CHEMBL4706632, “Development of Potential Antitumor Agents from the Scaffolds of Plant-Derived Terpenoid Lactones” (J Med Chem, 2020).

By IC50 is commonly meant the point on the concentration scale where inhibition reaches its midpoint. A high value points to lower potency. In general, EC90 refers to the concentration needed for an effect of 90%. The term EC50 denotes the concentration that produces a half-maximal response. Read a high EC50 as lower potency in that assay. By Cmax is commonly meant the maximum level reached in the sampled fluid or tissue.

One series has as its system BXPC-3. In words: Antiproliferative activity against human BXPC-3 incubated for 72 hrs by alamar blue assay. The conditions noted are these: BXPC-3, 72 h. Type of series: functional, cell-based. A general note: Resazurin is reduced to fluorescent resorufin, in cell work by metabolically active cells.
The test system of the next series is ASPC1. In words: Antiproliferative activity against human ASPC1 incubated for 72 hrs by alamar blue assay. The series is classed as functional, cell-based. To be noted: ASPC1, 72 h.
The next series deals with CFPAC-1. Kind of series: Antiproliferative activity against human CFPAC-1 incubated for 72 hrs by alamar blue assay. The series is classed as functional, cell-based. To be noted: CFPAC-1, 72 h.
Another series has as its system SW1990. In words: Antiproliferative activity against human SW1990 incubated for 72 hrs by alamar blue assay. Type of series: functional, cell-based. The conditions noted are these: SW1990, 72 h.
Series [1] in a line: Antitumor activity against human PaTu8988 cells xenografted in NOD/SCID mouse assessed as tumor growth inhibition at 5 mg/kg, ip administered daily for 60 days by digital caliper method relative to control. Type of series: functional. To be noted: 1440 h, time 60 day, read-out: TGI.
Series [2] can be described thus: Antiproliferative activity against human PaTu8988 incubated for 72 hrs by alamar blue assay. The series is classed as functional. The conditions noted are these: PaTu8988, 72 h.
For the next series, the system named is PC-3. In words: Antiproliferative activity against human PC-3 cells incubated for 72 hrs by CCK8 assay. Type of series: functional, cell-based. To be noted: PC-3, 72 h. A general note: Tetrazolium dyes change colour on reduction, which living cells bring about.
The next series has as its system DU-145. Kind of series: Antiproliferative activity against human DU-145 cells incubated for 72 hrs by CCK8 assay. The series is classed as functional, cell-based. To be noted: DU-145, 72 h.
In series [3] the test system is LNCaP. Kind of series: Antiproliferative activity against human LNCaP cells incubated for 72 hrs by CCK8 assay. The series is classed as functional, cell-based.
The next series has as its system RKO. Kind of series: Cytotoxicity against human RKO cells incubated for 72 hrs by Cell Titer-Glo luminescence assay. The series is classed as functional, cell-based.
In the next series the test system is SW480. In words: Cytotoxicity against human SW480 cells incubated for 72 hrs by Cell Titer-Glo luminescence assay. The conditions noted are these: SW480, 72 h. The series is classed as functional, cell-based. (In ATP-based viability assays light output follows the ATP content of the culture.)
Another series deals with AGS. In words: Cytotoxicity against human AGS cells incubated for 72 hrs by Alamar Blue method. Type of series: functional, cell-based.
A further series concerns HGC-27. Kind of series: Cytotoxicity against human HGC-27 cells incubated for 72 hrs by Alamar Blue method. The series is classed as functional, cell-based. To be noted: HGC-27, 72 h.
For the next series, the system named is MGC-803. Kind of series: Cytotoxicity against human MGC-803 cells incubated for 72 hrs by Alamar Blue method. Type of series: functional, cell-based. To be noted: MGC-803, 72 h.
The next series relates to NCI-N87. Kind of series: Cytotoxicity against human NCI-N87 cells incubated for 72 hrs by Alamar Blue method. Type of series: functional, cell-based. The conditions noted are these: NCI-N87, 72 h.
Another series deals with SGC-7901. In words: Cytotoxicity against human SGC-7901 cells incubated for 72 hrs by Alamar Blue method. The series is classed as functional, cell-based. The conditions noted are these: SGC-7901, 72 h.
Another series has as its system PANC-1. Kind of series: Cytotoxicity against human Panc-1 cells incubated for 72 hrs by alamar blue assay. The series is classed as functional, cell-based. The conditions noted are these: PANC-1, 72 h.
The subject of another series is Raji. Kind of series: Antiproliferative activity against human Raji cells incubated for 3 to 6 days by alamar blue assay. Type of series: functional, cell-based.
In series [4] the test system is Jurkat. In words: Antiproliferative activity against human Jurkat cells incubated for 3 to 6 days by alamar blue assay. The series is classed as functional, cell-based.
Another series deals with HT-29. Kind of series: Cytotoxicity against human HT-29 cells incubated for 72 hrs by sulforhodamine B assay. Type of series: functional, cell-based. The conditions noted are these: HT-29, 72 h.
A further series relates to SW626. In words: Cytotoxicity against human SW626 cells. The series is classed as functional, cell-based.
A short description of series [5]: Cytotoxicity against human Lu-1 cells. Type of series: functional, cell-based. To be noted: Lu1.
The test system of another series is L1210. In words: Cytotoxicity against mouse L1210 cells. The series is classed as functional, cell-based.
Another series has as its system HCT-116. In words: Cytotoxicity against human HCT116 cells incubated for 72 hrs by ATPlite assay. Type of series: functional, cell-based. The conditions noted are these: HCT-116, 72 h.
For a further series, the system named is HL-60. In words: Cytotoxicity against human HL-60 cells incubated for 72 hrs by ATPlite assay. The series is classed as functional, cell-based. The conditions noted are these: HL-60, 72 h.
Series [6] has as its system Jurkat. In words: Cytotoxicity against human Jurkat cells incubated for 72 hrs by ATPlite assay. The series is classed as functional, cell-based.
The test system of the next series is WM 266-4. Kind of series: Cytotoxicity against human WM 266-4 cells incubated for 72 hrs by ATPlite assay. The conditions noted are these: WM 266-4, 72 h. Type of series: functional, cell-based.
In another series the test system is CCRF-CEM. Kind of series: Cytotoxicity against human CEM cells incubated for 72 hrs by MTT assay. The series is classed as functional, cell-based.
The test system of series [7] is LNCaP. In words: Cytotoxicity against human LNCaP cells. Type of series: functional, cell-based.
Another series has as its system MDA-MB-231. Kind of series: Antiproliferative activity against human MDA-MB-231 cells incubated for 24 hrs by MTT assay. The series is classed as functional, cell-based. The conditions noted are these: MDA-MB-231, 24 h.
In the next series the test system is MCF7. Kind of series: Antiproliferative activity against human MCF7 cells incubated for 24 hrs by MTT assay. Type of series: functional, cell-based. To be noted: MCF7, 24 h.
Series [8] is described as follows: Cmax in Sprague-Dawley rat at 10 mg/kg, po measured after 0.25 to 72 hrs by LC/QTOF/MS method. The series is classed as ADME, organism-based. On the set-up: route oral, time upper 72 hrs, time lower 0.25 hrs, dose 10 mg/kg. The conditions noted are these: in vivo.
The nature of series [9]: Cmax in Sprague-Dawley rat at 10 mg/kg, iv measured after 0.08 to 72 hrs by LC/QTOF/MS method. Type of series: ADME, organism-based. On the set-up: route intravenous, dose 10 mg/kg, time upper 72 hrs, time lower 0.08 hrs. The conditions noted are these: in vivo.

Turning to `CC(C)[C@]12O[C@H]1[C@@H]1O[C@@]13[C@@]1(C)CCC4=C(COC4=O)[C@@H]1C[C@@H]1O[C@@]13C2=O` [TRIPTONIDE], the 50% inhibitory concentration (IC50) was less than 20 nM in the series on BXPC-3; less than 20 nM in the series on ASPC1; less than 20 nM in the series with CFPAC-1; less than 20 nM with SW1990; less than 20 nM in [2]; 12 nM with PC-3. For the same compound, the IC50 was 10 nM in the series with DU-145; 10 nM in the series with LNCaP [3]; 15 nM with RKO; 17 nM in the series on SW480; less than 20 nM in the series with AGS; less than 20 nM in the series with HGC-27. The IC50 in the series with MGC-803 was less than 20 nM; with NCI-N87 it was less than 20 nM; with SGC-7901, less than 20 nM; with PANC-1, less than 20 nM; with Raji, 4 nM; in the series with Jurkat [4], 4 nM. Further, the inhibition in vivo at 5 mg/kg in series [1] is 97.5%.
The compound `COC/C(C)=C/[C@@H]1OC(=O)[C@H]([C@@H]2CC[C@]34C[C@]23C=C[C@@H]2[C@@]3(C)CC=C5C[C@@H](c6ccc7c(c6)OCO7)OC[C@]5(C)[C@@H]3C[C@@H](O)[C@]24C)[C@H]1O` gave an IC50 with HT-29 of more than 10000 nM.
Regarding `C/C(=C\[C@H]1C[C@@H]([C@@H]2CC[C@]34C[C@]23C=C[C@@H]2[C@@]3(C)CC=C5C[C@@H](c6ccccc6)OC[C@]5(C)[C@@H]3C[C@@H](O)[C@]24C)C(=O)O1)CO` [DICHAPETALIN A], the IC50 in the series with SW626 stood at 340 nM; in series [5], 7000 nM; in the series on HL-60, 11000 nM; with Jurkat [6], 3000 nM; in the series on CCRF-CEM it was 9600 nM; in the series on LNCaP [7] it was 12000 nM. Besides, the concentration for an effect of 90% (EC90) with L1210 was less than 0.17 nM. Further, the EC50 with HCT-116 stood at 250 nM; with WM 266-4, 17000 nM.
As to `COC(=O)C[C@H]1[C@]2(C)C3=C(C)[C@H](c4ccoc4)C[C@H]3O[C@@H]2[C@@H]2OC(=O)[C@]3(C)C=CC(=O)[C@@]1(C)[C@@H]23` [NIMBOLIDE], the results for the half-inhibitory concentration (IC50) in the series with MDA-MB-231 and in the series on MCF7 were 6000 nM and 4000 nM, respectively. In addition, the maximum concentration (Cmax) in series [8] was 15.3 ng/mL; in series [9], 5560 ng/mL.
